Data on eleven compounds can be found in ChEMBL document CHEMBL3797068, “eCF309: a potent, selective and cell-permeable mTOR inhibitor” (Medchemcomm, 2016).

The subject of assay [1] is MCF7. Briefly: Cytotoxicity against human MCF7 cells at 0.3 to 1000 nM after 5 days by Presto blue reagent-based spectrofluorometric analysis. In kind it is functional, cell-based.
Assay [2] deals with Epithelial discoidin domain-containing receptor 1 (Homo sapiens, UniProt Q08345). Briefly: Inhibition of human DDR1 using (poly [Glu, Tyr] 4:1) as substrate assessed as incorporation of 33P in substrate by [gamma33P] ATP-based kinase assay.
Assay [3] addresses T1, Serine/threonine-protein kinase mTOR (Homo sapiens, UniProt P42345). Briefly: Inhibition of recombinant human mTOR by LanthaScreen Kinase assay. On the technique in general: In TR-FRET formats the signal depends on donor and acceptor labels being close together.
Assay [4] deals with T2, Phosphatidylinositol 4,5-bisphosphate 3-kinase catalytic subunit alpha isoform (Homo sapiens, UniProt P42336). Kind of assay: Inhibition of PI3Kalpha (unknown origin) using PIP2 as substrate by HTRF assay.
T2 sequence (P42336 whole entry, canonical isoform): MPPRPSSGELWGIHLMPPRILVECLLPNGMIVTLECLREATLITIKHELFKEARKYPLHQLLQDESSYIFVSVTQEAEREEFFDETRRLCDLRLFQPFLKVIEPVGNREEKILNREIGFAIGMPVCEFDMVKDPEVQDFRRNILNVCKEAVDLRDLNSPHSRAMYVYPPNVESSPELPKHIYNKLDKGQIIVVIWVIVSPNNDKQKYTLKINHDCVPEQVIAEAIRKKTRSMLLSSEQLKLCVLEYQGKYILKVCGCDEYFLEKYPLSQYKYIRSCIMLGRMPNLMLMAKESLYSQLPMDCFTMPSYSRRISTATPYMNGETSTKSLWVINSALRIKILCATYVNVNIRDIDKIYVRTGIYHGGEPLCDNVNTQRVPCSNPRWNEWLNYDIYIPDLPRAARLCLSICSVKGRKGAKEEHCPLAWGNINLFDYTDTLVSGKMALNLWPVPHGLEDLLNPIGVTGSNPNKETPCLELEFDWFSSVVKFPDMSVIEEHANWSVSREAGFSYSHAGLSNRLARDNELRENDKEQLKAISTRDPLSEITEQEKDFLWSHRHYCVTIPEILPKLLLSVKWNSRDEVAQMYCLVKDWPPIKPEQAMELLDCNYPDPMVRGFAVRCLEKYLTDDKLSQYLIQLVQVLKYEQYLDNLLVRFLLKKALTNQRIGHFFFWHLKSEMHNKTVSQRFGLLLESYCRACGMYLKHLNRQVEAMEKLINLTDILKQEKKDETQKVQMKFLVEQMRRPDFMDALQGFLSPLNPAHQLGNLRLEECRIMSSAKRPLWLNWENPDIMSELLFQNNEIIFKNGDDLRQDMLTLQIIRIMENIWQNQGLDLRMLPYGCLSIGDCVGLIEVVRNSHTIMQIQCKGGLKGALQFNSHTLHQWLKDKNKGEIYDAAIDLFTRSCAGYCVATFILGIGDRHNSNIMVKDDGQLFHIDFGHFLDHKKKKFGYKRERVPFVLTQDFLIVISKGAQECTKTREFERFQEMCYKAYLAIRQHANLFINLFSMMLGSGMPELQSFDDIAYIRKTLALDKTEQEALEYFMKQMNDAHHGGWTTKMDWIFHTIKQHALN
Assay [5] concerns the target T3, Phosphatidylinositol 4,5-bisphosphate 3-kinase catalytic subunit beta isoform (Homo sapiens, UniProt P42338). Briefly: Inhibition of PI3Kbeta (unknown origin) using PIP2 as substrate by HTRF assay.
The target in assay [6] is T4, Phosphatidylinositol 4,5-bisphosphate 3-kinase catalytic subunit gamma isoform (Homo sapiens, UniProt P48736). Briefly: Inhibition of PI3Kgamma (unknown origin) using PIP2 as substrate by HTRF assay.
Assay [7] concerns the target T5, Phosphatidylinositol 4,5-bisphosphate 3-kinase catalytic subunit delta isoform (Homo sapiens, UniProt O00329).
T5 sequence (O00329 whole entry): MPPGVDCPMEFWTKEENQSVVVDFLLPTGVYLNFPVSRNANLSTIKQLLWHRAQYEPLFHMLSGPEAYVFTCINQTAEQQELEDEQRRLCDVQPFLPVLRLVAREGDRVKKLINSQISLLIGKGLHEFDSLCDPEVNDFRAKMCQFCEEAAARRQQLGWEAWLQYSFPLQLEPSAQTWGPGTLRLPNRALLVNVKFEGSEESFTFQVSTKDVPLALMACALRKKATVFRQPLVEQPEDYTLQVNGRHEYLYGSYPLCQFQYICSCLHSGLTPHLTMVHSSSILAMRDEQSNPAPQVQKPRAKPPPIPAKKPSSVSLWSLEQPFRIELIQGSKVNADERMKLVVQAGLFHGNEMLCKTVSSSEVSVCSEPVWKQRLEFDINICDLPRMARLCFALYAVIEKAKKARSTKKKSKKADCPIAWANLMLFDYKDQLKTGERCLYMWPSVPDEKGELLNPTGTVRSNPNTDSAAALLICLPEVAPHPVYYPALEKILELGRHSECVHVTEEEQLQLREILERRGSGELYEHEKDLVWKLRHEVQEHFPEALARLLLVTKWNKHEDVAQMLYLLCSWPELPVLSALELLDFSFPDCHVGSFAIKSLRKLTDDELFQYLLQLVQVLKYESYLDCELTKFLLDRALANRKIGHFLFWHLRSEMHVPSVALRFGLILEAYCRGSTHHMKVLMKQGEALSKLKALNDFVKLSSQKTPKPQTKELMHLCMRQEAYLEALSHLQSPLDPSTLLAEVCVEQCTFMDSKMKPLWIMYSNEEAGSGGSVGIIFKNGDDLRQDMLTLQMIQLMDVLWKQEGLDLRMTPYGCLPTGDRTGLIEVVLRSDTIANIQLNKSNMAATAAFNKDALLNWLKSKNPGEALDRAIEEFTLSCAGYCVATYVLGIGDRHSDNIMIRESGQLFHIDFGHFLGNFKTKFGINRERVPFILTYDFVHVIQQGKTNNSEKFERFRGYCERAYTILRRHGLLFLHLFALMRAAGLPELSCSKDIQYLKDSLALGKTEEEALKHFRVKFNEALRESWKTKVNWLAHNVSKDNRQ
Kind of assay: Inhibition of PI3Kdelta (unknown origin) using PIP2 as substrate by HTRF assay.

Assay [8] addresses DNA-dependent protein kinase catalytic subunit (Homo sapiens, UniProt P78527). Kind of assay: Inhibition of human DNA-PK using (poly [Glu, Tyr] 4:1) as substrate assessed as incorporation of 33P in substrate by [gamma33P] ATP-based kinase assay.
In assay [9] the test system is MCF7. Briefly: Cytotoxicity against human MCF7 cells after 5 days by Presto blue reagent-based fluorescence analysis. In kind it is functional, cell-based. The note with it: for EC50: MCF7, 120 h.
In assay [10] the test system is MDA-MB-231. Kind of assay: Cytotoxicity against human MDA-MB-231 cells after 5 days by Presto blue reagent-based spectrofluorometric analysis. The note with it: MDA-MB-231, 120 h. In kind it is functional, cell-based.
The nature of assay [11]: Cytotoxicity against human PC3 cells after 5 days by Presto blue reagent-based spectrofluorometric analysis. Type of assay: functional, cell-based. The note with it: PC-3, 120 h.
Assay [12] deals with MCF7. Briefly: Cell cycle arrest in human MCF7 cells assessed as increase in G0/G1 population after 24 hrs by Hoechst 33342 staining-based fluorescence analysis. In kind it is functional.
The test system of assay [13] is MDA-MB-231. Briefly: Cell cycle arrest in human MDA-MB-231 cells assessed as increase in G0/G1 population after 24 hrs by Hoechst 33342 staining-based fluorescence analysis. In kind it is functional.
Assay [14] can be described thus: Cell cycle arrest in human PC3 cells assessed as increase in G0/G1 population after 24 hrs by Hoechst 33342 staining-based fluorescence analysis. Type of assay: functional. The following applies: PC-3.
In assay [15] the target is Tyrosine-protein kinase Blk (Homo sapiens, UniProt P51451). Kind of assay: Inhibition of human BLK using (poly [Glu, Tyr] 4:1) as substrate assessed as incorporation of 33P in substrate by [gamma33P] ATP-based kinase assay.
Sequence of Tyrosine-protein kinase Blk (P51451 whole entry): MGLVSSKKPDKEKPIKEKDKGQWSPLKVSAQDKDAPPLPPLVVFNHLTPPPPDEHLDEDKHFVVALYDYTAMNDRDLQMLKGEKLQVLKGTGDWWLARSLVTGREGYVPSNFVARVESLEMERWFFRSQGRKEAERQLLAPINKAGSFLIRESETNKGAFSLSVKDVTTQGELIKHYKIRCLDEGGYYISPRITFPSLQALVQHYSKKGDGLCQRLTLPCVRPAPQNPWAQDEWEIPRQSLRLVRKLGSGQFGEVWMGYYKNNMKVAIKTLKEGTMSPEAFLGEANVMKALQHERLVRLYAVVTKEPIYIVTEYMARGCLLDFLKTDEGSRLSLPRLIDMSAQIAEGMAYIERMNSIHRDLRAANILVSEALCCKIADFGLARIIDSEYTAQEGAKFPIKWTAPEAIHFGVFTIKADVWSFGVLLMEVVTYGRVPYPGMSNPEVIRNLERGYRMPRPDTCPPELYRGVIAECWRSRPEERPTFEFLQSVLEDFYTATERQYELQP
For assay [16], the target named is Tyrosine-protein kinase ABL1 (Homo sapiens, UniProt P00519). Kind of assay: Inhibition of human ABL using (poly [Glu, Tyr] 4:1) as substrate assessed as incorporation of 33P in substrate by [gamma33P] ATP-based kinase assay.
In assay [17] the target is Platelet-derived growth factor receptor alpha (Homo sapiens, UniProt P16234). Briefly: Inhibition of human PDGFRalpha using (poly [Glu, Tyr] 4:1) as substrate assessed as incorporation of 33P in substrate by [gamma33P] ATP-based kinase assay.
Sequence of Platelet-derived growth factor receptor alpha (P16234 whole entry): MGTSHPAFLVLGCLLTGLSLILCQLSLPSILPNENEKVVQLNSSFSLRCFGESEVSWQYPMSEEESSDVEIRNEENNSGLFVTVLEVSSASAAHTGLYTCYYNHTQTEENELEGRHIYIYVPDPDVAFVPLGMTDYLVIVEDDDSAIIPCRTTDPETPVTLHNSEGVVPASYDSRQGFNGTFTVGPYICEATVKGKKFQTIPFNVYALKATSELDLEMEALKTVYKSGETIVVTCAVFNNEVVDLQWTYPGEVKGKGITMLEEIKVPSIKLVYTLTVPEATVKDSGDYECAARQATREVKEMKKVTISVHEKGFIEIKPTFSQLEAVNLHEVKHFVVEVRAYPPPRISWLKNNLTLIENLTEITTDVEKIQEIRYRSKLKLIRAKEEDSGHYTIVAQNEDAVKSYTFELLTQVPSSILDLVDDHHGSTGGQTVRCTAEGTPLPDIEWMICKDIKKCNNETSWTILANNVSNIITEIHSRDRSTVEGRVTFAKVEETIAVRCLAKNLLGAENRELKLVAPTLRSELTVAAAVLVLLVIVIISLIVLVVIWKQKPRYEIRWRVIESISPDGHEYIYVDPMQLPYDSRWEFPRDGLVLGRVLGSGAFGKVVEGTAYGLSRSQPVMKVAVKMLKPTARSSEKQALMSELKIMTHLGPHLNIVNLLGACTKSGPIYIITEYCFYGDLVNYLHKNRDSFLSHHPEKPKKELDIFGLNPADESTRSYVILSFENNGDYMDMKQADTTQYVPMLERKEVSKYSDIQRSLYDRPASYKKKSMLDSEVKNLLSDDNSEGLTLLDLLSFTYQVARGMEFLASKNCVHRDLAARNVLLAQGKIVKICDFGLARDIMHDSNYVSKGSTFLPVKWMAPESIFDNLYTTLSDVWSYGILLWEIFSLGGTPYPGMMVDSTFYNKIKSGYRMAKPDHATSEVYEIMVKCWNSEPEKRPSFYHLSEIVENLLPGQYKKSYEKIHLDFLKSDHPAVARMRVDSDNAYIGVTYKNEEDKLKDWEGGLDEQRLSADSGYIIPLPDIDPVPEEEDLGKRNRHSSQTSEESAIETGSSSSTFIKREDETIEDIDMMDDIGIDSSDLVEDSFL
Assay [18] has as its target Tyrosine-protein kinase Fyn (Homo sapiens, UniProt P06241). Briefly: Inhibition of human FYN using (poly [Glu, Tyr] 4:1) as substrate assessed as incorporation of 33P in substrate by [gamma33P] ATP-based kinase assay.
The target in assay [19] is Mast/stem cell growth factor receptor Kit (Homo sapiens, UniProt P10721). Kind of assay: Inhibition of human KIT using (poly [Glu, Tyr] 4:1) as substrate assessed as incorporation of 33P in substrate by [gamma33P] ATP-based kinase assay.
Sequence of Mast/stem cell growth factor receptor Kit (P10721 whole entry): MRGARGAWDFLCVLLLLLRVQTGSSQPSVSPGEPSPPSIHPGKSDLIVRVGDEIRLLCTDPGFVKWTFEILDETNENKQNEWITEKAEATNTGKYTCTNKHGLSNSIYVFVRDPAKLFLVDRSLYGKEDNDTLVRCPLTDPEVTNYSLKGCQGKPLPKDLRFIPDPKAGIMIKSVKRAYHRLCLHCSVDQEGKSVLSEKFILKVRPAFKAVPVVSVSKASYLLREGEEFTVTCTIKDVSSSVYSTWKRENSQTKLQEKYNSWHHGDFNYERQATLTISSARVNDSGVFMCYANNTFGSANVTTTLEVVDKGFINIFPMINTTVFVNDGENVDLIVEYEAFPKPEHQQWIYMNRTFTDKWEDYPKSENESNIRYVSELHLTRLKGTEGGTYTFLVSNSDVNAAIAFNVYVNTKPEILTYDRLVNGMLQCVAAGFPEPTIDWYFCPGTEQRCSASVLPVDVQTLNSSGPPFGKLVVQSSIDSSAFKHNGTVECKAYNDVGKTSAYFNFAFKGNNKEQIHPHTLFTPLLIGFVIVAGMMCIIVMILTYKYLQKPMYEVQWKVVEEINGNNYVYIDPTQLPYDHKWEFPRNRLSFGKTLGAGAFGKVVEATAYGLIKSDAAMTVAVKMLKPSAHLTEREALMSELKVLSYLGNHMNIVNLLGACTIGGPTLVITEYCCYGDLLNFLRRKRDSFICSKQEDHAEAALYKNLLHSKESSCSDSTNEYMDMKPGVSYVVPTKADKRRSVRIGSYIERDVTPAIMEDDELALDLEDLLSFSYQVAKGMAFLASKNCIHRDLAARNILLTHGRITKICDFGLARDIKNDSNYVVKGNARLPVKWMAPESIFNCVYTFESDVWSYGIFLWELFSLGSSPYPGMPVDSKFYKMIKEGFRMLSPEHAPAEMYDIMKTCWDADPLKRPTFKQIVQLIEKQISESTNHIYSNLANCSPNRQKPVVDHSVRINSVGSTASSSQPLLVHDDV
Assay [20] deals with T1, Serine/threonine-protein kinase mTOR. Kind of assay: Inhibition of human mTOR using (poly [Glu, Tyr] 4:1) as substrate assessed as incorporation of 33P in substrate by [gamma33P] ATP-based kinase assay.
Assay [21] deals with Proto-oncogene tyrosine-protein kinase receptor Ret (Homo sapiens, UniProt P07949). Kind of assay: Inhibition of human RET using (poly [Glu, Tyr] 4:1) as substrate assessed as incorporation of 33P in substrate by [gamma33P] ATP-based kinase assay.
The target in assay [22] is Proto-oncogene tyrosine-protein kinase Src (Homo sapiens, UniProt P12931). Kind of assay: Inhibition of human SRC using (poly [Glu, Tyr] 4:1) as substrate assessed as incorporation of 33P in substrate by [gamma33P] ATP-based kinase assay.
In assay [23] the target is Tyrosine-protein kinase Yes (Homo sapiens, UniProt P07947). Kind of assay: Inhibition of human YES using (poly [Glu, Tyr] 4:1) as substrate assessed as incorporation of 33P in substrate by [gamma33P] ATP-based kinase assay.
Assay [24] addresses T2, Phosphatidylinositol 4,5-bisphosphate 3-kinase catalytic subunit alpha isoform. Kind of assay: Inhibition of PI3Kalpha (unknown origin) using (poly [Glu, Tyr] 4:1) as substrate assessed as incorporation of 33P in substrate by [gamma33P] ATP-based kinase assay.
In assay [25] the target is T3, Phosphatidylinositol 4,5-bisphosphate 3-kinase catalytic subunit beta isoform. Kind of assay: Inhibition of PI3Kbeta (unknown origin) using (poly [Glu, Tyr] 4:1) as substrate assessed as incorporation of 33P in substrate by [gamma33P] ATP-based kinase assay.
The target in assay [26] is T4, Phosphatidylinositol 4,5-bisphosphate 3-kinase catalytic subunit gamma isoform. Briefly: Inhibition of PI3Kgamma (unknown origin) using (poly [Glu, Tyr] 4:1) as substrate assessed as incorporation of 33P in substrate by [gamma33P] ATP-based kinase assay.
For assay [27], the target named is T5, Phosphatidylinositol 4,5-bisphosphate 3-kinase catalytic subunit delta isoform. Kind of assay: Inhibition of PI3Kdelta (unknown origin) using (poly [Glu, Tyr] 4:1) as substrate assessed as incorporation of 33P in substrate by [gamma33P] ATP-based kinase assay.
The test system of assay [28] is MCF7. Briefly: Cytotoxicity against human MCF7 cells assessed as cell viability at 1000 nM after 5 days by Presto blue reagent-based spectrofluorometric analysis. Type of assay: functional. The note with it: MCF7, 120 h, read-out: Activity.

A word on the IC50: it is the point on the concentration scale where inhibition reaches its midpoint. What is called EC50 is the concentration needed to bring the measured effect to its halfway point. The low end stands for an effect from little substance, the high end for a need for much substance.

Activity calls are given as the source filed them. The rule behind the calls is not given here.

T3 sequence (P42338 whole entry, canonical isoform): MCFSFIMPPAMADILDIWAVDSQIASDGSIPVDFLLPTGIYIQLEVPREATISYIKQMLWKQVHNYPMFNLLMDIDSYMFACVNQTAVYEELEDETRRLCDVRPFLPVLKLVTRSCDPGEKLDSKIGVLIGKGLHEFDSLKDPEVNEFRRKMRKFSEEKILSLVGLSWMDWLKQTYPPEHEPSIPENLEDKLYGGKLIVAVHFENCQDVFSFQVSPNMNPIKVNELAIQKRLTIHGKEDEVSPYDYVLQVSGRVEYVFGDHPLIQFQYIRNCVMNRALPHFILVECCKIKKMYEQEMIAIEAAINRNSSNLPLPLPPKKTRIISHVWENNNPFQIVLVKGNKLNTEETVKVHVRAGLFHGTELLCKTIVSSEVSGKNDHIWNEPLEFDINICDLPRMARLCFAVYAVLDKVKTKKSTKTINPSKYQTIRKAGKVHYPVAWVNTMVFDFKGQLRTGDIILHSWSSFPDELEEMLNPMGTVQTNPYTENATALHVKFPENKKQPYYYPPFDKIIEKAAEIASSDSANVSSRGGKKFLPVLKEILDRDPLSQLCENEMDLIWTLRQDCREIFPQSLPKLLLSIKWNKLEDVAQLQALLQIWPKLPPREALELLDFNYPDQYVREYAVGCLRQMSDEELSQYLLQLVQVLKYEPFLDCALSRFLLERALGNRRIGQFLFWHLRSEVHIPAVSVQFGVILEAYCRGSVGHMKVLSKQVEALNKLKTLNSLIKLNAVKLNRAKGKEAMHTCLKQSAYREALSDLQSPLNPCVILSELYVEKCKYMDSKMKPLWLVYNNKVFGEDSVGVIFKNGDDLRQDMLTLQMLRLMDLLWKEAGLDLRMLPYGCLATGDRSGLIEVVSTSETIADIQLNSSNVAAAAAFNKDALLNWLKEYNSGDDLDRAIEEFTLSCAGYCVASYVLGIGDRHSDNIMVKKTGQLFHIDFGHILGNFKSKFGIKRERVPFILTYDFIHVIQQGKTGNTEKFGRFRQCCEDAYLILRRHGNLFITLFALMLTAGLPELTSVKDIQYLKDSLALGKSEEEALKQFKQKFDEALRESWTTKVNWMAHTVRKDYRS

Take `Nc1nc2cc(-c3nn(CC=O)c4ncnc(N)c34)ccc2o1`: the result with MCF7 [1] was inactive.

Regarding `Nc1nc2cc(-c3nn(CC4CCCO4)c4ncnc(N)c34)ccc2o1` (stereo unspecified), the IC50 was 137 nM in [2]; 5 nM in [3]; 44 nM in assay [4]; 1120 nM in assay [5]; 77 nM in assay [6]; 149 nM in [7]. Also, in [8], the IC50 is 48 nM. Further, the EC50 stood at 8 nM with MCF7 [9], 113 nM with MDA-MB-231 [10] and 51 nM in [11]. The outcome (with MCF7 [12]; in the assay on MDA-MB-231 [13]; in assay [14]) was Active.

On to `Nc1ncnc2c1c(-c1cnc3[nH]ccc3c1)nn2CC1OCCO1`, for which, in the assay on MCF7 [9], the outcome was Active.

Consider `COC(Cn1nc(-c2ccc3oc(N)nc3c2)c2c(N)ncnc21)OC`, for which the IC50 in [15] was more than 100 µM; in assay [16], 9.92 µM; in assay [17] it was more than 100 µM; in assay [18], more than 100 µM; in [19], more than 100 µM; in [20], 25 nM. For the same compound, the IC50 in assay [21] was more than 100 µM; in [22] it was more than 100 µM; in [23] it was more than 100 µM; in assay [24] it was 300 nM; in assay [25] it was 5.6 µM; in assay [26], 99 nM. The IC50 in [27] worked out at 505 nM. This compound displayed an EC50 in the assay with MCF7 [9] of 6.7 nM.

Turning to `CCOC(Cn1nc(-c2cnc3[nH]ccc3c2)c2c(N)ncnc21)OCC`, the IC50 in assay [15], in assay [17] and in [19] was more than 100 µM throughout. In addition, the outcome with MCF7 [9] was Active.

`COC(Cn1nc(-c2cnc3[nH]ccc3c2)c2c(N)ncnc21)OC`: in the assay with MCF7 [9], the result was Active.

Take `CO[C@H]1C[C@@H]2CC[C@@H](C)[C@@](O)(O2)C(=O)C(=O)N2CCCC[C@H]2C(=O)O[C@H]([C@H](C)C[C@@H]2CC[C@@H](OCCO)[C@H](OC)C2)CC(=O)[C@H](C)/C=C(\C)[C@@H](O)[C@@H](OC)C(=O)[C@H](C)C[C@H](C)/C=C/C=C/C=C/1C` [EVEROLIMUS]: in the assay on MCF7 [9], the concentration for a half-maximal effect (EC50) was less than 1 nM. For the same compound, in the assay on MCF7 [28], the viability at 1 µM came out at 30%.

Take `Nc1nc2cc(-c3nn(CC4OCCO4)c4ncnc(N)c34)ccc2o1`: the IC50 in assay [15] is more than 100 µM; in assay [16], 8.63 µM; in assay [17], more than 100 µM; in assay [18] it was more than 100 µM; in [19], more than 100 µM; in assay [20], 59 nM. Further, the concentration for half-maximal inhibition (IC50) in assay [21] was more than 100 µM; in assay [22] it was more than 100 µM; in assay [23], more than 100 µM; in [24], 115 nM; in assay [25], 3.85 µM; in assay [26], 302 nM. Besides, the IC50 in [27] came out at 271 nM. Besides, the EC50 with MCF7 [9] is 7.6 nM.

With `Nc1nc2cc(-c3nn(CC4CCCC4)c4ncnc(N)c34)ccc2o1`, the IC50 in assay [2] was determined as 4.7 nM; in assay [3], 1.8 nM; in assay [4], 3.5 nM; in [5], 89 nM; in [6], 5 nM; in assay [7], 7.3 nM. Also, the IC50 in [8] stood at 3 nM. Also, the EC50 with MCF7 [9] is 1.7 nM; in the assay on MDA-MB-231 [10] it was 12 nM; in [11], 4 nM. In addition, the result (in the assay with MCF7 [12]; in the assay on MDA-MB-231 [13]; in assay [14]) was Active.

`CO[C@H]1C[C@@H]2CC[C@@H](C)[C@@](O)(O2)C(=O)C(=O)N2CCCC[C@H]2C(=O)O[C@H]([C@H](C)C[C@@H]2CC[C@@H](O)[C@H](OC)C2)CC(=O)[C@H](C)/C=C(\C)[C@@H](O)[C@@H](OC)C(=O)[C@H](C)C[C@H](C)/C=C/C=C/C=C/1C` [SIROLIMUS] gave an EC50 in the assay with MCF7 [9] of less than 1 nM. In addition, the viability at 1 µM in the assay on MCF7 [28] is 30%.

Consider `CNC(=O)c1cccc(-c2ccc3c(N4CCOC[C@@H]4C)nc(N4CCOC[C@@H]4C)nc3n2)c1`, for which the result in the assay on MCF7 [9] was Active.
